Data as given in US20060002932A1, “Methods and compositions for enhancement of immunity by in vivo depletion of immunosuppressive cell activity” (priority 2004, published 2006).
Values joined by “and” are separate entries in the source; they are usually repeats but may differ in a detail not shown here. Equal entries are not always repeated.

Assays:
[1] = system: CD4^+/CD25^high Treg; assay: Depletion of regulatory T cells in vivo (FACS of patient PBMC); parameters: species or system human; details: for Treg Depletion (%): single i.v. dose 18 μg/kg
Experimental: Four-color FACS analyses were performed using a Becton Dickinson FACSCalibur™. Fluorochrome-conjugated antibodies including anti-CD4 FITC, anti-CD45RO, anti-CD45RA (Caltag, Burlingame, Calif.); anti-CD25 PE (Becton Dickinson, California, CA) as well as isotypic control antibodies (Caltag, Burlingame, Calif.) were used for T-cell staining. Expression of GITR was analyzed by staining T cells with anti-GITR antibody (R&D Systems, Minneapolis, Minn.) followed by secondary goat anti-mouse antibody conjugated to APC. For determination of intracellular CTLA-4 expression, T cells were permeabilized with 0.5% saponin, fixed with 4% paraformaldehyde and then stained with biotinylated anti-CD152 (Becton Dickinson, California, CA) followed by APC-strepavidin (Becton Dickinson, California, CA). A total of 1×10^6 cells were suspended in staining buffer (PBS with 1% FCS, 2 mM EDTA, and 0.1% sodium azide) and incubated for 20 minutes at 4° C. with the antibody. Data were analyzed and presented using CELLQuest™ software. Sorting of CD4^+CD25^neg, CD4^+CD25^int and CD4^+CD25^high T cells was performed with a BD FACSAria™ cell sorter after antibody labeling. For detection of cytokine secretion, isolated CD4^+ T cells were activated for 16 hours in the presence of autologous mRNA-transfected DC. Cytokine secretion was measured using c Th1/Th2 cytokine cytometric bead arrays according to the manufacturer's protocol (BD Biosciences Pharmingen, San Diego, Calif.).
Using these methods, the degree of regulatory T cell depletion efficacy in the four subjects treated on the clinical protocol was determined.
Four-color FACS analyses were performed using the following antibodies: anti-CD4 FITC, anti-CD45RO, anti-CD45RA (Caltag), anti-CD25 PE (Becton Dickinson), anti-GITR (R&D Systems), and isotypic controls (Caltag). Sorting of CD4^+/CD25^neg, CD4^+/CD25^int and CD4^+/CD25^high T cells was performed using a Becton Dickinson FACSAria™ cell sorter after antibody labeling. For intracellular detection of FoxP3, cells were permeabilized with 30 μg/ml digitonin for 45 minutes at 4° C. Subsequently, cells were stained with anti-FoxP3 antibody (Abcam), and R-PE anti-goat IgG in the presence of 10 μg/ml digitonin for 30 minutes at 4° C. Following staining, cells were fixed and analyzed by FACS. For intracellular CTLA-4 detection, T cells were permeabilized, fixed, and stained with biotinylated anti-CD152 (Becton Dickinson) followed by APC-streptavidin (Becton Dickinson). A total of 1×10^6 cells was suspended in staining buffer (PBS with 1% FCS, 2 mM EDTA, and 0.1% sodium azide) and incubated for 20 minutes at 4° C. with the antibody.

[2] = system: CD4^+CD25^high regulatory T cells; assay: MTT cytotoxicity assay on isolated regulatory T cells; type: cell-based, human
Experimental: […] The formazan crystals were solubilized by adding 100 μL isopropanol/0.1 M hydrochloric acid and incubating at 37° C. for 2 hours. The absorbance of the formazan product was measured on an enzyme-linked immunosorbent assay (ELISA) plate reader at 570 nm.
Interferon-γ and IL-4 ELISPOT analyses were performed using PBMC obtained prior to, during, and after vaccination. PBMC were cultured overnight in complete RPMI 1640 medium. CD4^+ and CD8^+ T cells were isolated from PBMC by negative depletion (Miltenyi). After blocking, 1×10^5 T cells and 1×10^4 RNA-transfected DC were added to each well of 96-well nitrocellulose plates (Multiscreen-IP, Millipore) precoated with 2 μg/ml Interferon-γ capture antibody (Endogen) or with IL-4 capture antibody (BD Biosciences Pharmingen). Plates were incubated for 20 hours at 37° C., and biotinylated Interferon-γ detection antibody (Endogen) or biotinylated IL-4 antibody (BD Biosciences Pharmingen) was added to each well. Cells were then incubated for an additional two hours at room temperature, then with streptavidin-alkaline phosphatase (1 μg/ml; Sigma) and plates were developed with substrate (Kirkegaard & Perry Laboratories). After washing, spots were counted using an automated ELISPOT reader (Carl Zeiss). CTL assays were performed by coculturing RNA-transfected DC with autologous PBMC. Cells were restimulated once and IL-2 (20 units/ml) was added after five days and every other day thereafter. After 12 days of culture, effector cells were harvested. Target cells were labeled with 100 μCi of Na2[^51CrO4] (NEN) in 200 μl of complete RPMI 1640 for one hour at 37° C. in 5% CO2 and ^51Cr-labeled target cells were incubated in complete RPMI 1640 medium with effector cells for five hours at 37° C. Then, 50 μl of supernatant was harvested, and release of ^51Cr was measured with a scintillation counter. For proliferation assays, purified CD3^+ T cells were seeded into round-bottomed microplates in the presence of mRNA-transfected DC. […] Incorporation of thymidine was determined using a liquid scintillation counter.

[3] = system: CD4^+CD25^− and CD4^+CD25^int cells; assay: MTT cytotoxicity assay on CD25 negative/intermediate CD4+ T cells; type: cell-based, human
Experimental: After 48 hours of incubation, 20 μL MTT from a 5 mg/mL stock was added and incubation was continued for another 4 hours. The formazan crystals were solubilized by adding 100 μL isopropanol/0.1 M hydrochloric acid and incubating at 37° C. for 2 hours. The absorbance of the formazan product was measured on an enzyme-linked immunosorbent assay (ELISA) plate reader at 570 nm.
Interferon-γ and IL-4 ELISPOT analyses were performed using PBMC obtained prior to, during, and after vaccination. PBMC were cultured overnight in complete RPMI 1640 medium. CD4^+ and CD8^+ T cells were isolated from PBMC by negative depletion (Miltenyi). After blocking, 1×10^5 T cells and 1×10^4 RNA-transfected DC were added to each well of 96-well nitrocellulose plates (Multiscreen-IP, Millipore) precoated with 2 μg/ml Interferon-γ capture antibody (Endogen) or with IL-4 capture antibody (BD Biosciences Pharmingen). Plates were incubated for 20 hours at 37° C., and biotinylated Interferon-γ detection antibody (Endogen) or biotinylated IL-4 antibody (BD Biosciences Pharmingen) was added to each well. […] After washing, spots were counted using an automated ELISPOT reader (Carl Zeiss). […] Then, 50 μl of supernatant was harvested, and release of ^51Cr was measured with a scintillation counter. […] Incorporation of thymidine was determined using a liquid scintillation counter.

[4] = 6-hour exposure, viability over 48 hours

Q: Which “Treg Depletion (%)” value ([1]; Example 1, per patient, four days after treatment) does the source give for denileukin diftitox [DAB389IL-2] here?
A: Its value is 74% and 88% and 37% and 77%.

Q: And the “Treg Depletion (%)” value ([1]; Example 1, per patient, four days after treatment, listed as DAB 389 IL-2)?
A: Its value is 74% and 88% and 37% and 77%.

Q: What about the “Treg Depletion (%)” value ([1]; Example 2, per patient, 4 days after infusion) of the same substance?
A: The value was 74% and 72% and 68% and 76% and 57% and 26% and 35%.

Q: And the “effect on CD25^neg/int subsets” value ([1]; total CD25^pos cells after DAB389IL-2)?
A: The value was “CD25^neg/int subsets were unaffected”.

Q: And the “Treg restored in the peripheral T-cell pool” value ([1]; within two months)?
A: The value was “approximately 75%”.

Q: And the “concentration giving complete depletion of CD4^+CD25^high cells” value [2, 4]?
A: The value was 5 nM.

Q: What about the “concentration giving efficient killing of CD4^+CD25^high cells” value [2, 4] of the same substance?
A: The value was 0.5 nM.

Q: What about the “cell viability of CD4^+CD25^high regulatory T cells” value ([2]; 24 hours following exposure) of the same substance?
A: Its value is “significant reduction in cell viability”.

Q: What about the “concentration above which cell death occurred in CD4^+CD25^− and CD4^+CD25^int cells” value [3] of the same substance?
A: Its value is “higher than 10 nM”.

Q: And the “cell death of CD4^+CD25^− and CD4^+CD25^int cells” value ([3]; concentrations up to 10 nM)?
A: Its value is “did not result in significant cell death”.
